According to article PMC11123979, “Discovery of Nine Dipeptidyl Peptidase-4 Inhibitors from Coptis chinensis Using Virtual Screening, Bioactivity Evaluation, and Binding Studies” (Molecules, 2024):
pIC50, pKd: −log10 of the molar value. Read-outs that look alike come from different tables or passages of the source.

Experiments:
DPP-4 [1] = target: T1, DPP-4 (Homo sapiens, UniProt P27487); assay: DPP-4 inhibition assay (commercial DPP-4 inhibitor screening assay kit, fluorescence); type: biochemical; settings: for pIC50: dose-response curves, read-out: IC50 value of the DPP-4 inhibitory activity; for inhibition at 30 µM: read-out: DPP-4 inhibition (primary screening)
T1 construct: purchased Cayman Chemical Company 700210
Description: The DPP-4 inhibitory activity of 39 potential compounds obtained via virtual screening was tested using a commercial DPP-4 inhibitor screening assay kit (Item No. 700210, Cayman Chemical Company, Ann Arbor, MI, USA), and the kit’s instructions were followed exactly. The fluorescence intensity was measured at an excitation/emission wavelength of 360/460 nm using an EnVision Multilabel Reader (2104 PerkinElmer, Waltham, MA, USA). The possibility of false positives was eliminated by assessing the autofluorescence of each test compound. […] These compounds were prepared at a concentration of 30 μM in deionized water that contained 0.5% DMSO. […] The half-maximal inhibitory concentration (IC50) was determined using GraphPad Prism 9 software.

DPP-4 [2] = target: T1, DPP-4; assay: SPR-based binding assay (BIAcore T200, DPP-4 immobilized on CM5 chip); settings: 'Affinity' module, 1:1, 25 °C, Tris-HCl pH 8.0
Description: The binding affinity between DPP-4 and six alkaloids in Coptis chinensis was evaluated using the BIAcore T200 system (GE Healthcare, Uppsala, Sweden). All SPR-related materials were obtained from GE Healthcare, and DPP-4 (D3446) was purchased from Sigma-Aldrich Chemical Co. (St. Louis, MO, USA). The DPP-4 protein, dissolved in PBS at a concentration of 40 ng/μL, was immobilized onto the surface of a CM5 sensor chip using a standard amine-coupling procedure. The test compounds were prepared at varying concentrations in a solution of Tris-Hcl (pH 8.0) and injected over the surface of the chip at a rate of 30 μL·min^−1 and a temperature of 25 °C. A reference flow cell without the immobilization of DPP-4 served as a control for non-specific binding. […] The chip could be regenerated and reused multiple times after it was treated with glycine–HCl (10 mM; pH 2.0). The test compounds were evaluated using the single-cycle kinetics mode across a two-fold concentration series (1.17–100 µM). The equilibrium constant (KD) was calculated based on the 1:1 reaction ratio between the molecule and protein, using the ‘affinity” module in the Biacore T200 software.

T1 sequence (P27487 whole entry): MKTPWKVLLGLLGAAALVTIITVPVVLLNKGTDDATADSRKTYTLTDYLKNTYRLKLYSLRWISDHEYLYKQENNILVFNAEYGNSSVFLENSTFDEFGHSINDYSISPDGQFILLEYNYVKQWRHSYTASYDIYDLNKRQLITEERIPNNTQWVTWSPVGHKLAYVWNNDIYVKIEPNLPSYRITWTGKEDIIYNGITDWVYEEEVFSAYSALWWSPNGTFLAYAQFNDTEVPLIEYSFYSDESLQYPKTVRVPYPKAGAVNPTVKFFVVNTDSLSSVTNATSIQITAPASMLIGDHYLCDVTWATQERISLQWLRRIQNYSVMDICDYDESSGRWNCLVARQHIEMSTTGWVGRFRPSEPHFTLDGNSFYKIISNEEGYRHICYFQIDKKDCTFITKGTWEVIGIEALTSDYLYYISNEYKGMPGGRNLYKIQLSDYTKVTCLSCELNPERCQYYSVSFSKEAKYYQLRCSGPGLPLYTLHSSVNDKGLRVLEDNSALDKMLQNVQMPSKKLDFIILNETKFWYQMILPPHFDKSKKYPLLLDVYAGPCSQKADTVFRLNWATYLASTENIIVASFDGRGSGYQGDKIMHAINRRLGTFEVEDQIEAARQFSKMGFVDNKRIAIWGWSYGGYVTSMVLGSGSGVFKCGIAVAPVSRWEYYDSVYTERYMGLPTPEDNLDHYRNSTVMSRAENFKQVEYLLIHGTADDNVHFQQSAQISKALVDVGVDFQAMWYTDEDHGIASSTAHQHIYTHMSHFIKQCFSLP

Structure (SMILES): COc1ccc2cc3[n+](cc2c1OC)CCc1cc2c(cc1-3)OCO2 [berberine]
- pIC50 (DPP-4 [1]): 4.27
- inhibition at 30 µM (DPP-4 [1]; final concentration of 30 μM): > 40%
- pKd (DPP-4 [2]): 4.52

Structure (SMILES): COc1ccc2cc3[n+](cc2c1O)CCc1cc2c(cc1-3)OCO2 [berberrubine]
- pIC50 (DPP-4 [1]): 4.56
- inhibition at 30 µM (DPP-4 [1]; final concentration of 30 μM): > 40%
- pKd (DPP-4 [2]): 4.73

Structure (SMILES): COc1cc2c(cc1O)-c1cc3ccc(OC)c(OC)c3c[n+]1CC2 [columbamine]
- pIC50 (DPP-4 [1]): 5.46
- inhibition at 30 µM (DPP-4 [1]; final concentration of 30 μM): > 40%
- pKd (DPP-4 [2]): 5.09

Structure (SMILES): c1c2c(cc3c1OCO3)-c1cc3ccc4c(c3c[n+]1CC2)OCO4 [coptisine]
- pIC50 (DPP-4 [1]): 5.05
- inhibition at 30 µM (DPP-4 [1]; final concentration of 30 μM): > 40%
- pKd (DPP-4 [2]): 4.86

Structure (SMILES): COc1ccc2cc3[n+](cc2c1OC)CCc1cc(O)c(O)cc1-3 [demethyleneberberine]
- pIC50 (DPP-4 [1]): 5.44
- inhibition at 30 µM (DPP-4 [1]; final concentration of 30 μM): > 40%

Structure (SMILES): COc1cc2c(cc1OC)-c1cc3ccc4c(c3c[n+]1CC2)OCO4 [epiberberine]
- pIC50 (DPP-4 [1]): 4.45
- inhibition at 30 µM (DPP-4 [1]; final concentration of 30 μM): > 40%

Structure (SMILES): COc1cc2c(cc1O)CC[n+]1cc3c4c(ccc3cc1-2)OCO4 [groenlandicine]
- pIC50 (DPP-4 [1]): 4.87
- inhibition at 30 µM (DPP-4 [1]; final concentration of 30 μM): > 40%
- pKd (DPP-4 [2]): 4.82

Structure (SMILES): COc1cc2c(cc1O)CC[n+]1cc3c(OC)c(OC)ccc3cc1-2 [jatrorrhizine]
- pIC50 (DPP-4 [1]): 4.57
- inhibition at 30 µM (DPP-4 [1]): > 40%
- pKd (DPP-4 [2]): 4.92

Structure (SMILES): COc1cc2c(cc1OC)-c1cc3ccc(OC)c(OC)c3c[n+]1CC2 [palmatine]
- pIC50 (DPP-4 [1]): 4.30
- inhibition at 30 µM (DPP-4 [1]; final concentration of 30 μM): > 40%
